The target in one series is PI 3-kinase alpha (Homo sapiens, UniProt P42336). Nature of the series: Kinase Glo luminescent kinase assay (Kglo), assay A. It counts as biochemical. To be noted: read-out: Assay A PI3Kα IC50. For orientation: Kinase-Glo measures the ATP left after a reaction by luminescence.
Series [1] deals with T1, PI 3-kinase gamma (U937 cells, MIP1α-stimulated AKT phosphorylation) (Homo sapiens, UniProt P48736).
T1 construct: endogenous in cells; host or cells: U937 human monocyte cell line
T1 sequence (P48736 whole entry): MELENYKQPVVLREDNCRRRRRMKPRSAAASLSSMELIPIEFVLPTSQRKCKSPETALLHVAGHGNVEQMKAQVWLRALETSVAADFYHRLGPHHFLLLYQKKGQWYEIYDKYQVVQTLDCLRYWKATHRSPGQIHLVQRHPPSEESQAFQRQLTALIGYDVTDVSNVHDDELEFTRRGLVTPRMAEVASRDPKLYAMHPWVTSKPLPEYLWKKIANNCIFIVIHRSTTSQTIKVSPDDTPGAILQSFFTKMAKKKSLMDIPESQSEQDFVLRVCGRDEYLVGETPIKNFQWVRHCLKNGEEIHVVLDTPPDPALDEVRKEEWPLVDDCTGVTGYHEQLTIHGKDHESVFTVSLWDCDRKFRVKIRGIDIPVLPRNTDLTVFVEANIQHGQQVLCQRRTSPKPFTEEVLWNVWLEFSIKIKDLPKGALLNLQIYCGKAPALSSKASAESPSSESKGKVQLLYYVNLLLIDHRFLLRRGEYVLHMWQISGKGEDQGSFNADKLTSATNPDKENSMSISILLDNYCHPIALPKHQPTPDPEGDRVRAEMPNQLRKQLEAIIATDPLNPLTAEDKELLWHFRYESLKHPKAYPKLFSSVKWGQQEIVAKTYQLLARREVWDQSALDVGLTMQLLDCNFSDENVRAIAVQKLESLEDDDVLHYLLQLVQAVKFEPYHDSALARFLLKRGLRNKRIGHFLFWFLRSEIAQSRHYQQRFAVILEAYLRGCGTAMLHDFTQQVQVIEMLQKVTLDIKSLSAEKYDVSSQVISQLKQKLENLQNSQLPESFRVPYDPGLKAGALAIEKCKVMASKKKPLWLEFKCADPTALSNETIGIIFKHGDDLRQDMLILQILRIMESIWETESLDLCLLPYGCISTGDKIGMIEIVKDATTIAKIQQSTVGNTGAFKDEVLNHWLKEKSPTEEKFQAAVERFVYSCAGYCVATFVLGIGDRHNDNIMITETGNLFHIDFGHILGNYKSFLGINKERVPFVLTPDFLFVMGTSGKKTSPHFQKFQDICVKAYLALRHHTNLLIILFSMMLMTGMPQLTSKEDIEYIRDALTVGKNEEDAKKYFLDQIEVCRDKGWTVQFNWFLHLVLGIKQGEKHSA
The experiment in a line: Cellular U937 AKT assay (HTRF), assay K2. Format: cell-based. To be noted: HTRF format, read-out: Assay K2 PI3Kγ IC50. For orientation: TR-FRET usually uses a lanthanide donor and a delayed reading to cut background.
Experimental: (§1) In assays K1 and K2, the compounds were tested for their ability to inhibit the production of phosphorylated AKT (Protein Kinase B) generated in a PI 3-kinase gamma isoform-dependent process in a U937 human cell line.
Cellular U937 AKT Assay for PI 3-Kinase Gamma (K2)
U937 cells are split every 3-4 days: 5×10^6 cells/flask (175 cm^2) in 40 ml.
Semi-automated preparation of cell lysates: Cells were resuspended in HBSS, seeded (200′000 cells/well/60 μl) into a 384-well plate and incubated in a humidified 37° C., 5% CO2 incubator for 1.5 hours. The compounds were diluted with HBSS and 40 μl were added to the starved cells (except for wells 24 I-P). […] The cells were then incubated for 30 minutes at 37° C. and 5% CO2. Stimulation occurred during 3 minutes by addition of 20 μl MIP1α (final 10 ng/ml, diluted in HBSS) in the incubator. Wells 24 A-H were only stimulated with HBSS.
The stimulation was then stopped by putting the cell plates on ice (filled with cold water). The cells were then centrifuged at 1200 rpm and 4° C. for 3 minutes.
80 μl of supernatant was removed. The cells were again centrifuged at 1200 rpm and 4° C. for 3 minutes. The supernatant was then removed by turning plates upside down and 30 μl of lysis buffer were added. The plate was incubated at room temperature for 30 minutes under shaking. 16 μl were then transferred to a ProxiPlate Plus 384-well. […]

For the next series, the target named is PI 3-kinase delta (Homo sapiens, UniProt O00329). The experiment in a line: TR-FRET Adapta assay, assay F.
Chain of PI 3-kinase delta (P27986 461-568 partner limits assumed, one chain of several): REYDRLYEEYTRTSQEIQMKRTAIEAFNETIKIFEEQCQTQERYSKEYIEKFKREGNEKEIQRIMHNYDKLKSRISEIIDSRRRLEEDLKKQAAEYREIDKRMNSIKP
For the next series, the target named is PI 3-kinase gamma (Homo sapiens, UniProt P48736). Nature of the series: TR-FRET Adapta assay, assay E. It counts as biochemical.
Chain of PI 3-kinase gamma (P48736 whole entry): as the sequence (P48736 whole entry) above
Series [2] has as its target T1, PI 3-kinase gamma (U937 cells, MIP1α-stimulated AKT phosphorylation). Nature of the series: Cellular U937 AKT assay (MSD), assay K1. The note with it: MSD format, read-out: Assay K1 PI3Kγ IC50. It counts as cell-based.
Experimental: as §1
Cellular U937 AKT Assay for PI 3-Kinase Gamma (K1)
Cells are incubated at 37° C., 5% CO2.
Before beginning the cell manipulations described below, the MSD (Meso Scale Discovery) assay plate is blocked by addition of 150 μl/well blocking buffer supplied and incubated with shaking for a minimum of one hour at room temperature. All steps of the assay must be performed quickly, with accurately timed incubation periods and observing temperature controls where indicated.
falcon tube, counted and centrifuged for eight minutes at 300 g at room temperature. Supernatant is aspirated, the cell pellet resuspended and washed once in HBSS (Hank's Balanced Salt Solution) by centrifugation for eight minutes at 300 g at room temperature. […] Assay plates are incubated for 1.5 hours at 37° C., 5% CO2 to allow background AKT phosphorylation to reduce before the compound stimulation step.
Compound titrations are prepared in a fresh flat-bottomed, 96-well plate, by 10-fold serial dilution of 40 μM into HBSS 0.8% DMSO; pipette tips are replaced after each dilution is made. Compound concentrations at this stage are 4-times the final concentration required in the assay plate. Cells are stimulated with compound or HBSS 0.8% DMSO by direct transfer of 50 μl/well from the compound dilution plate. The assay plate containing compound-treated cells is then incubated for 30 minutes at 37° C. A standard plate layout is used for all experiments.
Compound-treated cells, in addition to positive control wells (“max MIP1α”), are stimulated with 50 μL per well of 40 ng/ml MIP1α (R&D Systems catalogue number 270-LD, lyophilized stock reconstituted to 50 μg/ml with PBS 0.1% BSA). Negative control wells (“min HBSS”), are stimulated with 50 μl/well of HBSS in the absence of MIP1α. Final compound concentrations are now diluted 4-fold giving a top concentration of 10 μM; where added, the final concentration of MIP1α is 10 ng/ml. Cells are incubated with MIP1α for 3 minutes, at 37° C., 5% CO2. After the three minute stimulation period, the assay plate is kept ice cold at all times. Assay plates are centrifuged for 2 minutes at 300 g, 4° C. and supernatant is removed by gently inverting, and then blotting the plate on tissue. Cells are then washed by gentle addition of 150 μL/well of ice cold HBSS and centrifugation at 300 g, for 5 minutes at 4° C. Supernatant is
aspirated and the plate blotted as described above. […] Plates are incubated on ice for 20 minutes before centrifugation at 841 g for 5 minutes, 4° C.
Block buffer is aspirated from the MSD plate, and the plate washed four times with 300 μl/well Tris wash buffer. 25 μL of cell lysate is then transferred from the assay plate to the washed MSD plate which is sealed and incubated at room temperature for one hour with shaking. […] The plate is washed four times with 300 μl per well of Tris wash buffer and 150 μl per well of Read buffer is added, taking care to avoid the introduction of bubbles. The plate is immediately read using an MSD SECTOR Imager 6000. Results are exported in Excel and the percentage of phosphorylated AKT is calculated using the equation: % Phosphoprotein=((2*Phospho signal)/(Phospho signal+Total signal))*100. Compound-mediated inhibition of AKT phosphorylation is analysed using Prizm V Graphpad software.
For another series, the target named is Vps34 (Homo sapiens, UniProt Q8NEB9). Nature of the series: Kinase Glo luminescent kinase assay (Kglo), assay C. It counts as biochemical.
Chain of Vps34 (Q8NEB9 whole entry, species assumed): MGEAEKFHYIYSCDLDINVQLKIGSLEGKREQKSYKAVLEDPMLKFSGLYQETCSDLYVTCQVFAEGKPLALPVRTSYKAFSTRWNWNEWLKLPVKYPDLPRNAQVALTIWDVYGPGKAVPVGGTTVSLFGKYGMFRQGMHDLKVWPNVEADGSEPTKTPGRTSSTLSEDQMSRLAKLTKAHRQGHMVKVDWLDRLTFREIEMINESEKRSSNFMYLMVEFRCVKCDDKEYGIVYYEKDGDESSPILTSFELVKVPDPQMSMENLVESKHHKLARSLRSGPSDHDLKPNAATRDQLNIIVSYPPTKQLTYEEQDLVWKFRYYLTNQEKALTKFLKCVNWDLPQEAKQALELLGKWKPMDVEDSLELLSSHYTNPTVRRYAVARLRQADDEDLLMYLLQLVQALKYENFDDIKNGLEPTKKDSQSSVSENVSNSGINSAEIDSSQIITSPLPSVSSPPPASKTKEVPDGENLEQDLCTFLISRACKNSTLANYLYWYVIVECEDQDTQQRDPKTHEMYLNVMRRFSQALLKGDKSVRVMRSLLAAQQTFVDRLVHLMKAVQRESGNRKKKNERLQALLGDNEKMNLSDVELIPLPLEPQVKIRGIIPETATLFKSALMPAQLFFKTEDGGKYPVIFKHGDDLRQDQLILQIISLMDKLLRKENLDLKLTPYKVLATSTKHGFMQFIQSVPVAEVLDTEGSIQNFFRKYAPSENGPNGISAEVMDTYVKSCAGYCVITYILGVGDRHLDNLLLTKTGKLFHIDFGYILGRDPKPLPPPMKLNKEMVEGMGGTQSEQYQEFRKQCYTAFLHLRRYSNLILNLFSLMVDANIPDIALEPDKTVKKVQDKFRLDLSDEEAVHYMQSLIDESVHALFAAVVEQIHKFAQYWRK
Another series concerns the target mTOR (Homo sapiens, UniProt P42345). Nature of the series: Lanthascreen kinase binding assay, assay G.
For series [3], the target named is T2, PI 3-kinase delta (Rat-1_PI3Kdelta cells, Myr-HA-hp110 delta) (Homo sapiens, UniProt O00329).
T2 construct: expressed in transfected cells
T2 sequence (O00329 1-1044): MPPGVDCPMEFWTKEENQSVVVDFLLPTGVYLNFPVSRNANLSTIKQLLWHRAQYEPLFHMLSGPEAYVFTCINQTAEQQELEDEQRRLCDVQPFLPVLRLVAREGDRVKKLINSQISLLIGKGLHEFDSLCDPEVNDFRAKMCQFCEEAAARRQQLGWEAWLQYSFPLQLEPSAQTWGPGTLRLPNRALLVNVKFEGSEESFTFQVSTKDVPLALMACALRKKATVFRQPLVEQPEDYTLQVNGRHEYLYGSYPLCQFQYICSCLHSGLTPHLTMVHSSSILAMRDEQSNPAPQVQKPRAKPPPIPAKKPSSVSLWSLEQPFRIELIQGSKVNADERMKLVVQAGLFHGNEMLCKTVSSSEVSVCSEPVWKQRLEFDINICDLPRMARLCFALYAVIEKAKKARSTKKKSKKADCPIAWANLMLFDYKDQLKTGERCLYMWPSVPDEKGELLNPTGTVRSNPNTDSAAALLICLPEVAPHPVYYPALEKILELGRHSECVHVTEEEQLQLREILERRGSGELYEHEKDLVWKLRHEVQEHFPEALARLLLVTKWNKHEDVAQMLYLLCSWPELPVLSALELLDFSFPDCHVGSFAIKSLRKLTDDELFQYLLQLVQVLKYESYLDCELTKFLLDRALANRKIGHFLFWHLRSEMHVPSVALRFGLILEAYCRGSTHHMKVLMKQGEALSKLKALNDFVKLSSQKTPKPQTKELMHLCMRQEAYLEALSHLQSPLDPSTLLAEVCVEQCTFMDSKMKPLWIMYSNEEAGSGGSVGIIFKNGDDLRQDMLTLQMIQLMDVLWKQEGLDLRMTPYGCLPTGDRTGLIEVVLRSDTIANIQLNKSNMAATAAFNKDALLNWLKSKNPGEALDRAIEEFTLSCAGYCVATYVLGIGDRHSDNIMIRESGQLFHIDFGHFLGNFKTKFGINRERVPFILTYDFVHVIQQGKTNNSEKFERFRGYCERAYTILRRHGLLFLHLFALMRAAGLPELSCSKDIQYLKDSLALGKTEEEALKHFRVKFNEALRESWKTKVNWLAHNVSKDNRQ
Nature of the series: Cellular p-Akt (S473) assay, Surefire format, assay J1. It counts as cell-based. The note with it: non-asterisked data: version J1 (Surefire format); read-out: Assay J PI3Kδ IC50.
Text: (§2) Cellular Assays for PI 3-Kinase Alpha (H1), Beta (I1) and Delta (J1): Surefire Format
(§3) AlphaScreen (Amplified Luminescent Proximity Homogeneous Assay, ALPHA, Perkin Elmer) is a non-radioactive bead-based proximity assay technology to study biomolecular interactions in a homogenous microtiter plate format. The brand name SureFire denotes AlphaScreen assays that are adapted to quantify the phosphorylation of endogenous cellular proteins in cell lysates, by using matched antibody pairs, which consist of an anti-phospho-kinase and an anti-kinase antibody. The assay allows characterization of kinase signaling in cells as well as measurement of kinase inhibitor effects.
(§4) Using Rat-1 cells stably expressing myr-HA-tagged versions of the human PI3Kdelta, PI3Kalpha, or PI3Kbeta p110 catalytic subunit isoforms, the assay was developed as a two-plate protocol in a 384-well format.
(§5) For compound testing, the cells were seeded at a density of 4000 (Rat-1_PI3Kdelta), 7500 (Rat-1_PI3Kalpha), or 6200 (Rat-1_PI3Kbeta) cells in 20 μl complete growth medium into cell culture treated 384-well plates and were grown at 37° C./5% CO2/90% humidity for 24 h. Shortly before compound transfer, the complete medium was removed, 30 μl assay buffer (DMEM high glucose, 1×MEM NEAA, 10 mM HEPES, 2 mM L-glutamine, 0.1% (w/v) BSA) was added and 10 μl of the compound predilutions were transferred to the cells.

Series [4] addresses T3, PI 3-kinase beta (Rat-1_PI3Kbeta cells, Myr-HA-hp110 beta) (Homo sapiens, UniProt P42338).
T3 construct: expressed in transfected cells
Nature of the series: Cellular p-Akt (S473) assay, Surefire format, assay I1. Format: cell-based. To be noted: non-asterisked data: version I1 (Surefire format); read-out: Assay I PI3Kβ IC50.
Experimental: The assay allows characterization of kinase signaling in cells as well as measurement of kinase inhibitor effects.
as §4, §5
(§6) All fits were performed with the program XLfit4 (ID Business Solutions, Guildford, UK).

Series [5] has as its target T4, PI 3-kinase alpha (Rat-1_PI3Kalpha cells, Myr-HA-hp110 alpha) (Homo sapiens, UniProt P42336).
T4 construct: expressed in transfected cells
Nature of the series: Cellular p-Akt (S473) assay, Surefire format, assay H1. Format: cell-based. The note with it: non-asterisked data: version H1 (Surefire format); read-out: Assay H PI3Kα IC50.
Text: as §2, §3, §4, §5

The subject of series [6] is IL-8-induced neutrophil shape change in human whole blood. The experiment in a line: Whole blood neutrophil shape change assay, assay L. It counts as cell-based. To be noted: read-out: Assay L WBSC IC50.
Experimental: Whole Blood Neutrophil Shape Change Assay (L)
IL-8 was made up to 2 μM stocks in 0.1% bovine serum albumin/PBS and stored at −80° C. On the day IL-8 was diluted in PBS (phosphate buffered saline) 10 minutes before use. IL-8 was used at final concentration of 2 nM and a concentration range from 0.003 to 200 nM for the donor dose response curve.
Assay fixative solution was prepared fresh each day from 10× concentrated CellFlX™ solution diluted 1:10 in sterile distilled water and then 1:4 with PBS. Assay fixative solution was kept on ice prior to use.
A 10× lysis buffer was prepared in advance by dissolving 20.75 g NH4Cl and 2.5 g KHCO3 in 250 ml sterile H2O. This 10× lysis buffer was filtered under sterile conditions and stored for up to two weeks at 4° C. On the day a 1× lysis solution was prepared with sterile distilled H2O and kept on ice prior to use.
The test compounds were prepared as 10 mM stock solutions in 100% DMSO and were stored at 4° C. Once in use for an assay 10 mM stock compounds were thawed and stored at RT protected from light. Compound dilutions were prepared fresh on the day. The first series of dilutions in 100% DMSO were done first thing in the morning. Only once blood had been collected and arrived in laboratory was the next set of dilutions into PBS carried out (1:10 PBS, 10% DMSO). This limited the exposure of diluted compound to plastic and made sure the exposure timing was consistent between assays.
Compound dilutions in 100% DMSO were prepared as described previously. Human whole blood was collected in K2 EDTA Vacutainers. Once blood was in the laboratory, compound dilutions into PBS were carried out as described previously and depicted in Table 1.
The outer wells of the deep well assay plate were filled with 1200 μl of sterile distilled H2O in an effort to limit edge effects (rows A1-H1, A1-A12, A12-H12).
An IL-8 dose response was determined for each blood donor examined, to monitor the donor response to IL-8. […] In addition the assay window without DMSO was also assessed each day. […]
Series [7] can be described thus: Microsomal clearance assay, assay M. It counts as in vitro ADME. The note with it: intrinsic clearance in rat liver microsomes. A general note: Microsomes from liver hold many membrane-bound enzymes, among them those of drug oxidation.
Experimental: The experiments were performed in 96-well glass plates at 37° C. on an automated Tecan EVO platform. Test compounds at a concentration of 10 mM in pure DMSO were diluted 1:1000 in water to 10 μM. […] Reactions were initiated by the addition of 150 μL of a cofactor solution containing 2 mM NADPH.

Where two headings read alike, the source gives them in different places.

T4 sequence (P42336 whole entry): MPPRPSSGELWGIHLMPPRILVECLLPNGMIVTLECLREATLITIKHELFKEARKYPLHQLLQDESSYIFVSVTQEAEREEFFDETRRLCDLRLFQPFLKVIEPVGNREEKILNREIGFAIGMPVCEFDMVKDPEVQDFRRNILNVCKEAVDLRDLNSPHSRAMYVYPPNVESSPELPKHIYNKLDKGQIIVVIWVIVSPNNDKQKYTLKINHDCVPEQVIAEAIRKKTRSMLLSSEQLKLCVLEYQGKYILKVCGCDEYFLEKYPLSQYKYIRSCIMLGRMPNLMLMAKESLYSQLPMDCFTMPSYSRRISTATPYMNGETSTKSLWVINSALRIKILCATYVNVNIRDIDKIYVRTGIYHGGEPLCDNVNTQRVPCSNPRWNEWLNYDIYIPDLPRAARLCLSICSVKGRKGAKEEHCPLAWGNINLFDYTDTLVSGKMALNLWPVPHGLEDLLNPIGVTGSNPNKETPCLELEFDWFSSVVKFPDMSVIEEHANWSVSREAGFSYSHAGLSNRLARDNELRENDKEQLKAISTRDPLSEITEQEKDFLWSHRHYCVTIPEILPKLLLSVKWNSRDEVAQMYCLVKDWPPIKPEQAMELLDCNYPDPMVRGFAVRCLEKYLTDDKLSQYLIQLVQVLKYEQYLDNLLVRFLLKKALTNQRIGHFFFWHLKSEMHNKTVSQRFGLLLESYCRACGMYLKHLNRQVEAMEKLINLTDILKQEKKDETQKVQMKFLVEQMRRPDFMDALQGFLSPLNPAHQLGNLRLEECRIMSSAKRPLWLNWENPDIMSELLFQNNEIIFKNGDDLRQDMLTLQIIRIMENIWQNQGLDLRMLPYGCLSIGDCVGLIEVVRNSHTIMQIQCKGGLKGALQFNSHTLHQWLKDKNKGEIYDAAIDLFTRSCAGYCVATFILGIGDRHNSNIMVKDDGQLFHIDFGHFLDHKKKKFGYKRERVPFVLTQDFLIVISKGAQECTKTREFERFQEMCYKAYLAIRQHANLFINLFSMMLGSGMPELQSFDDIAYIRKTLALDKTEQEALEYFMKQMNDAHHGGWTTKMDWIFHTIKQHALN
T3 sequence (P42338 whole entry): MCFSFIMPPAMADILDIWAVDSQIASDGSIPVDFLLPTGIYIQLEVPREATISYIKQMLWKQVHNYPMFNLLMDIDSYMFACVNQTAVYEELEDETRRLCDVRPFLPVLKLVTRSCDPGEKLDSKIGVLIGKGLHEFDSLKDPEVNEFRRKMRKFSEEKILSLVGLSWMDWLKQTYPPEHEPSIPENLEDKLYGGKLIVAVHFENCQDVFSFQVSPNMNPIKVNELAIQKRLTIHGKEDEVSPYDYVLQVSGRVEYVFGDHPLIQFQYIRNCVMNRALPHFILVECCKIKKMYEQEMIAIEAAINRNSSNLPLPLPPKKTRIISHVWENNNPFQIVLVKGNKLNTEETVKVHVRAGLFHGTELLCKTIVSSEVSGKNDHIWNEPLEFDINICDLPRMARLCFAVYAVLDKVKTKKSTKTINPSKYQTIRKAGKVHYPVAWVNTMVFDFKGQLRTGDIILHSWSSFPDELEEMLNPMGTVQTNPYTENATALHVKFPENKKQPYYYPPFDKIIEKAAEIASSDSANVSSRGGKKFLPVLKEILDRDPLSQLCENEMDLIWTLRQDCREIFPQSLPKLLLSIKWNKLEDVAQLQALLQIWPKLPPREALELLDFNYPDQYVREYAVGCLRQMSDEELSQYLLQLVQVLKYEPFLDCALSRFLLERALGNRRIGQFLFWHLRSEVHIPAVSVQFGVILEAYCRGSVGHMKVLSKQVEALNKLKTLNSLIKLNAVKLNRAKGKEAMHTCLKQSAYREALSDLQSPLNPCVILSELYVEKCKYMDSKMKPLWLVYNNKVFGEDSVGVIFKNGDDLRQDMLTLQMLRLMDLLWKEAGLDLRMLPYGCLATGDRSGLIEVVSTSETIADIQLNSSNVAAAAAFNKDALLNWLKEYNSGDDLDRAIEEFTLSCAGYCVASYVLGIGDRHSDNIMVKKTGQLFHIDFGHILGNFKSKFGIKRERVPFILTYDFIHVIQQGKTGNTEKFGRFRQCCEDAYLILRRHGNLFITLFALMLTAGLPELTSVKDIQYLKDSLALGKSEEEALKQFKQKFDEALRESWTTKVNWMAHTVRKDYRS
Chain of PI 3-kinase alpha (P42336 whole entry): as the sequence (P42336 whole entry) above
Chain of PI 3-kinase alpha (P27986 461-568 partner limits assumed): as the sequence (P27986 461-568 partner limits assumed, one chain of several) above
Experimental for Vps34: Kinase Glo Luminescent Kinase Assay (Kglo) for Pb 3-Kinase Alpha (A), Pb 3-Kinase Beta (B), Vps34 (C), Pb 4-Kinase Beta (D)
The Kinase Glo Luminescent Kinase Assay (Promega, Madison/Wis., USA) is a homogeneous HTS method of measuring kinase activity by quantifying the amount of ATP remaining in solution following a kinase reaction.
L-α-phosphatidylinositol (PI), provided as 10 mg/ml solution in methanol, was transferred into a glass tube and dried under a nitrogen beam. It was then resuspended in 3% OctylGlucoside (1-0-n-octyl-beta-D-glucopyranoside) by vortexing and stored at 4° C. 5 μL of a mix of PI/OctylGlucoside with the PI 3-kinase alpha and PI 3-kinase beta subtypes, or Vps34 or PI 4-kinase beta were added. Kinase reactions were started by the addition of 5 μl of an ATP-mix containing in a final volume 10 μL 10 mM TRIS-HCl pH 7.5, 3 mM MgCl2, 50 mM NaCl, 0.05% CHAPS, 1 mM DTT and 1 μM ATP at room temperature.
as §6
Experimental for mTOR: Lanthascreen™ Kinase Binding Assay for mTOR (G)
Binding of an inhibitor to the kinase competes for binding with the tracer, resulting in a loss of FRET.
50 nL of compound dilutions were dispensed onto white 384-well small volume polystyrene plate.

The IC50 is the concentration that gives 50% inhibition. Take `Cc1ccc(S(=O)(=O)NCC2COCCN2C)cc1-c1cnc(N)c(-c2cn(C)nc2C)n1` (single isomer, unassigned) [Example 128.3a, (R or S)-3-(5-Amino-6-(1,3-dimethyl-1H-pyrazol-4-yl)pyrazin-2-yl)-4-methyl-N-((4-methylmorpholin-3-yl)methyl)benzenesulfonamide]: the IC50 at PI 3-kinase alpha came out at 230 nM; in series [1] it was 241 nM; against PI 3-kinase delta, 570 nM; at PI 3-kinase gamma (TR-FRET Adapta assay, read-out: Assay E PI3Kγ IC50), 27 nM.
In the case of `Cc1ccc(S(=O)(=O)NCC2CCC(C)(C)O2)cc1-c1cnc(N)c(-n2cncn2)n1` (stereo in doubt) [Example 127.40, (R)-3-(5-amino-6-(1H-1,2,4-triazol-1-yl)pyrazin-2-yl)-N-((5,5-dimethyltetrahydrofuran-2-yl)methyl)-4-methylbenzenesulfonamide], the IC50 in series [2] came to 411 nM.
For `Cc1ccc(S(=O)(=O)NCC(C)(C)O)cc1-c1cnc(N)c(-c2nn(C)nc2C)n1` [Example 19, 3-[5-Amino-6-(2,5-dimethyl-2H-[1,2,3]triazol-4-yl)-pyrazin-2-yl]-N-(2-hydroxy-2-methyl-propyl)-4-methyl-benzenesulfonamide], at Vps34, inhibition was half-maximal at 9.4 µM (IC50).
Still for that read-out and setting: under `Cc1ncc(-c2nc(-c3cc(S(=O)(=O)NCC4(CO)CCOCC4)ccc3C)cnc2N)s1` [Example 45.9, 3-(5-Amino-6-(2-methylthiazol-5-yl)pyrazin-2-yl)-N-((4-(hydroxymethyl)tetrahydro-2H-pyran-4-yl)methyl)-4-methylbenzenesulfonamide] stands 9.4 µM.
For `Cc1cc(-c2nc(-c3cc(S(=O)(=O)NCC(C)(C)O)ccc3C)cnc2N)on1` [Example 88, 3-(5-Amino-6-(3-methylisoxazol-5-yl)pyrazin-2-yl)-N-(2-hydroxy-2-methylpropyl)-4-methylbenzenesulfonamide], the concentration for half-maximal inhibition (IC50) against Vps34 and on mTOR was 9.1 µM each time.
For `Cc1ccc(S(=O)(=O)NCCC(C)(C)O)cc1-c1cnc(N)c(-c2ccnc(F)c2)n1` [Example 119.10, 3-(5-amino-6-(2-fluoropyridin-4-yl)pyrazin-2-yl)-N-(3-hydroxy-3-methylbutyl)-4-methylbenzenesulfonamide], the IC50 in [2] was found to be 172 nM; in [3] it was 1040 nM; in series [4], 2.59 µM; in series [5], 630 nM.
Regarding `Cc1ccc(S(=O)(=O)NCCC(C)(C)O)cc1-c1cnc(N)c(-c2cncnc2)n1` [Example 119.20, 3-(5-amino-6-(pyrimidin-5-yl)pyrazin-2-yl)-N-(3-hydroxy-3-methylbutyl)-4-methylbenzenesulfonamide], the figures for the IC50 in series [3], in series [4] and in series [5] were 7030 nM, 4.86 µM and 4950 nM, respectively.
As for `Cc1nc(-c2nc(-c3cc(S(=O)(=O)NCCC(C)(C)O)ccc3C)cnc2N)cs1` [Example 119.30, 3-(5-amino-6-(2-methylthiazol-4-yl)pyrazin-2-yl)-N-(3-hydroxy-3-methylbutyl)-4-methylbenzenesulfonamide], the 50% inhibitory concentration (IC50) in [2] amounted to 42 nM; in series [3] it was 630 nM; in series [4] it was 6.99 µM; in series [6], 1140 nM; in series [5], 690 nM. In addition, the “Assay M RLM CI(int)” value in series [7] stood at 77 µL/min/mg.
As to `Cc1ncc(-c2nc(-c3cc(S(=O)(=O)NCCC(C)(C)O)ccc3C)cnc2N)o1` [Example 119.40, 3-(5-amino-6-(2-methyloxazol-5-yl)pyrazin-2-yl)-N-(3-hydroxy-3-methylbutyl)-4-methylbenzenesulfonamide], the IC50 is 1040 nM in series [3], 8.16 µM in series [4], 1100 nM in series [5] and 47 nM in series [1]. Also, in series [7], the “Assay M RLM CI(int)” value is 56 µL/min/mg.
Turning to `Cc1ccc(S(=O)(=O)N[C@@H]2CCOC2)cc1-c1cnc(N)c(-n2cncn2)n1` [Example 127.20, (R)-3-(5-amino-6-(1H-1,2,4-triazol-1-yl)pyrazin-2-yl)-4-methyl-N-(tetrahydrofuran-3-yl)benzenesulfonamide], the half-maximal inhibitory concentration (IC50) in series [2] came to 850 nM.
With `Cc1ccc(S(=O)(=O)NC[C@](C)(O)C(F)(F)F)cc1-c1cnc(N)c(-n2cncn2)n1` [Example 127.23, (S)-3-(5-amino-6-(1H-1,2,4-triazol-1-yl)pyrazin-2-yl)-4-methyl-N-(3,3,3-trifluoro-2-hydroxy-2-methylpropyl)benzenesulfonamide], the 50% inhibitory concentration (IC50) at mTOR (Lanthascreen kinase binding assay) was found to be 9.1 µM.
As to `Cc1ccc(S(=O)(=O)NCC2(CO)CCOCC2)cc1-c1cnc(N)c(-n2cncn2)n1` [Example 127.50], the concentration for half-maximal inhibition (IC50) in series [2] came to 179 nM; in series [6] it was 1070 nM.
As to `Cc1ccc(S(=O)(=O)N[C@@H]2CNC[C@H]2O)cc1-c1cnc(N)c(-n2cncn2)n1` [Example 127.60], the “Assay M RLM CI(int)” value in series [7] is 20 µL/min/mg.
For `Cc1cc(-c2nc(-c3cc(S(=O)(=O)NC4CCOCC4)ccc3C)cnc2N)ccn1` [Example 129.10], the IC50 in [6] was determined as 1610 nM. For the same compound, the “Assay M RLM CI(int)” value in series [7] was found to be 78 µL/min/mg.
Regarding `Cc1cc(-c2nc(-c3cc(S(=O)(=O)NCCC(C)(O)C(F)(F)F)ccc3C)cnc2N)ccn1` (stereo not drawn) [Example 129.13], in series [5], the IC50 was found to be 3000 nM.
`Cc1ccc(S(=O)(=O)NCCC(C)(C)O)cc1-c1cnc(N)c(-c2cccnc2OC(C)C)n1` [Reference example 119.12, 3-(5-amino-6-(2-isopropoxypyridin-3-yl)pyrazin-2-yl)-N-(3-hydroxy-3-methylbutyl)-4-methylbenzenesulfonamide]: the “activity in assay E (PI 3-kinase gamma)” value at PI 3-kinase gamma (result in words) is “not shown any activity”.

Source of the values: patent US20180243297A1, “Amino pyrazine derivatives as phosphatidylinositol 3-kinase inhibitors” (Novartis AG, priority 2014, published 2018).
